According to patent US10111420B2 (priority 2011, dated 2018):

Test: Sessile advancing contact angle of distilled water containing surfactants
Format: physicochemical
Conditions: water on oven dry P. radiata
Description: The contact angle data is recorded using water because resins, by their nature, can continue to polymerise resulting in changes in viscosity which will change the wetting behaviour of the resin/surfactant mix. […] Water is also present in all amino resins as the carrier of the resin solids so it is important to understand the effect of the surfactant on water because this will have a direct relationship on the wetting performance of the resin. The contact angle shown below is the average of at least 5 measurements. The measurements were taken after 1 second and in some instances after half a second. Where the entry is “n/a” it indicates complete wetting i.e. a contact angle of 0° or very close to 0°.

Question: Which “Contact angle @ 1 sec” value (surfactant 0.05%, octanol 0.1%) does the source give for `CCCCCCCCCCCCOS(=O)(=O)[O-].[Na+]` [SDS] here?
Answer: 31.0 °

Question: What about the “Contact angle @ 1 sec” value (surfactant 0.1%, octanol 0.1%) of the same compound?
Answer: 9.5 °

Question: And the “Contact angle @ 1 sec” value (surfactant 0.1%, octanol 0.25%)?
Answer: 8.99 °
